Some test systems named below: RXF-631 renal; HS 578T breast; PC-3 prostate; MDA-N; MCF7 breast; 786-0 renal; BT-549 breast; T-47D breast; SN12K1 renal; P388 leukemia; P388/ADR leukemia; HOP-18 NSCLC.
Common to all, as to assay: NCI tumour cell line growth inhibition, 48 h

“And” between values parts separate entries of the source, which are not always exact repeats. Identical values can stand only once.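 Protocol summary: plate cells (96-well), add compound at 5 concentrations, incubate 48 h, interpolate endpoints linearly. Abbreviation: GI50, concentration required for 50% inhibition of growth. TGI denotes the concentration required for complete inhibition of growth.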

In the assay on RXF-631 renal, `CC(=O)C(C(=O)C(=O)Nc1cc(Cl)c(Cl)cc1Cl)c1csc(N)n1` (stereo not drawn) registered a TGI of more than 100000 nM.

On to `Cn1cc(-c2csc(-c3cn(CCCN4CCCCC4)c4ccc(Br)cc34)n2)c2cccnc21`, for which the GI50 was 2090 nM with HS 578T breast and 1770 nM with PC-3 prostate. Further, the results for the TGI with HS 578T breast and in the assay with PC-3 prostate were 5410 nM and 3220 nM, respectively.

For the molecule `CC(=O)OC1(C)CC(C)C(=O)C(C(O)CC2CC(=O)NC(=O)C2)C1` (stereo not drawn), the TGI in the assay with MDA-N is 204 nM and 215 nM; in the assay with MCF7 breast, 81.3 nM; in the assay on 786-0 renal, 66.9 nM; in the assay with PC-3 prostate it was 85.2 nM; with T-47D breast, 583 nM. Moreover, in the assay on BT-549 breast, the GI50 was 14.8 nM.

Take `O=[N+]([O-])c1cc(C(F)(F)F)cc2c1SC1=Nc3ccccc3CN12`: the TGI in the assay on SN12K1 renal, in the assay on MCF7 breast, in the assay with P388 leukemia, with P388/ADR leukemia and in the assay on HOP-18 NSCLC was more than 100000 nM throughout.

For `CCCCCC1CC(C(C)=O)CN1c1ccc(F)cc1` (stereo not drawn), in the assay with HOP-18 NSCLC, the TGI stood at 82500 nM.

On to `CCn1c(=O)c2c3ccc(O)cc3[nH]c2c2ccc(O)cc21`, for which the TGI with MDA-N, in the assay with HS 578T breast, in the assay on MCF7 breast, in the assay on BT-549 breast, with PC-3 prostate and in the assay on T-47D breast was more than 100000 nM each time.
